Measured values published in patent US20190358264A1, “METHODS OF TREATING DISEASES ASSOCIATED WITH ILC2 CELLS” (Limm Therapeutics, SA, priority 2016, published 2019).

Experiments:
[1] = tested on: ERK1/2; experiment: ERK phosphorylation in purified ILC2s activated with NmU23; assay type: cell-based, mouse; settings: NmU23 100 ng/mL, 10 minutes, with IL-2 and IL-7
Experimental: Purified ILC2s from small intestine and lung were FBS starved for 2 hours before in vitro activation with NmU23 at 37° C. To test for ERK phosphorylation (Cell Signaling Technology), purified ILC2s were activated with NmU23 (100 ng/mL; Phoenix pharmaceuticals) in the presence of IL-2 and IL-7 (10 ng/mL; Peprotech) for 10 minutes prior to intracellular staining. To test ERK, calcineurin and NFAT activation, ILC2s were cultured for 1 hour with their respective inhibitor and then stimulated with NmU23 overnight before mRNA expression analysis. ERK inhibitor—PD98059 (Sigma); Calcineurin inhibitor—FK506 (Tocris Bioscience); NFAT inhibitor—11R-VIVIT (Tocris Bioscience).

[2] = tested on: Nippostrongylus brasiliensis; experiment: NmU23 treatment of N. brasiliensis infected mice; assay type: in vivo, mouse
Experimental: FIGS. 12a-12f: (FIGS. 12a-12c) Mice were infected with N. brasiliensis larvae and treated with NmU23 peptide (8 g/day) or PBS (control). Lungs were analysed at day 2 post-infection. FIG. 12a, ILC2 response in lungs from NmU23 treated mice (n=5) compared to control (n=5). FIG. 12b, Burden of infection in lungs of infected mice treated with PBS (n=5) or NmU23 (n=5). FIG. 12c, Pulmonary hemorrhage in lung of infected mice treated with NmU23 compared to control. (FIGS. 12d-12f) Mice were infected with N. brasiliensis larvae and treated with NmU23 peptide (8 g/day) or PBS (control). Lungs and small intestine were analysed at day 6 post-infection. FIG. 12d, Neutrophils and eosinophils infiltrate in broncho-alveolar lavage (BAL) in infected mice treated with NmU23 versus PBS. Control n=5; NmU23 n=5. FIG. 12e, Mastocytes and Macrophages infiltrate in broncho-alveolar lavage (BAL) in infected mice treated with NmU23 versus PBS. Control n=5; NmU23 n=5. FIG. 12f, Burden of infection in small intestine of infected mice treated with PBS (n=5) or NmU23 (n=5). Error bars show s.e.m. *P<0.05; **P<0.01; ***P<0.001; ****P<0.0001; ns not significant.
For in vitro experiments, purified lung and small intestine lamina propria ILC2s were FBS starved for 2 hours prior to stimulation and cultured in complete RPMI (supplemented with 10% foetal bovine serum (FBS), 1% hepes, sodium pyruvate, glutamine, streptomycin and penicillin) at 37° C. For mRNA analysis, ILC2s were stimulated overnight with recombinant mouse Neuromedin U 23 peptide (NmU23, 100 ng/mL; Phoenix pharmaceuticals). Both NmU23-stimulated and control ILC2s were cultured in the presence of IL-2 and IL-7 (10 ng/mL; Peprotech). ILC2s were lysed using RLT buffer (Qiagen). For cytokine protein analysis, ILC2s were incubated exclusively with brefeldin A (eBioscience) for 12 hours prior to intracellular staining. For in vivo experiments, B6 mice were injected intraperitoneal with NmU23 peptide (2 g/day) during Nippostrongylus brasiliensis infection or with a single dose of NmU23 (20 μg) and analyzed after 8 hours. Control mice were treated with PBS alone.
Nippostrongylus brasiliensis was maintained by monthly passages in Lewis rats as previously described^34. Infective (iL3) worms were kindly provided by Nicola Harris (Lausanne, Switzerland). iL3 larvae were treated for 15 minutes with penicillin/streptomycin (300 U/mL; Thermo Fisher Scientific), gentamicin (1.5 mg/mL; Sigma) and tetracyclin (30 μg/mL; Sigma), washed with PBS and counted under a stereomicroscope. Mice were injected subcutaneously with 500 iL3 in 200 μL of sterile PBS using a 21 G needle. Mice were sacrificed at day 2 post-infection and lungs were collected and analysed.
Lung parasite burden was quantified in finely minced lungs and as previously described^34. Lung were placed on sterile cheesecloth and suspended in a 50 mL tube containing PBS at 37° C. for at least 4 hours. Viable worms that migrate out into the bottom of the tube were counted under a stereomicroscope (steREO Lumar V12; Zeiss).
Mice were sacrificed by cervical dislocation, and caudal lobe of the right lung was harvested, fixed in 10% neutral buffered formalin and processed for paraffin embedding. […] Slides were analyzed by a pathologist blinded to experimental groups and images were acquired in a Leica DM2500 microscope, coupled with a Leica MC 170 HD microscope camera. […]

## recombinant mouse Neuromedin U 23 peptide (FKAEYQSPSVGQSKGYFLFRPRN; listed as Mus musculus) [NmU23, NMUR1 agonist neuropeptide, Phoenix pharmaceuticals]
[1]
  ERK1/2 activation (pERK) in ILC2s: immediate and efficient ERK1/2 activation
[2]; NmU23 8 g/day vs PBS, day 2 post-infection
  lung haemorrhage in N. brasiliensis infected mice: reduced lung haemorrhage
[2]; NmU23 8 g/day vs PBS, day 2 post-infection (FIG. 12a)
  ILC2-derived IL-5, IL-13 and Amphiregulin in lungs of N. brasiliensis infected mice: increased ILC2-derived IL-5, IL-13 and Amphiregulin
[2]; NmU23 8 g/day vs PBS, day 2 post-infection (FIG. 12b)
  lung parasite burden in N. brasiliensis infected mice: decreased
[2]; NmU23 8 g/day vs PBS, small intestine, day 6 post-infection (FIG. 12f)
  intestinal parasite burden in N. brasiliensis infected mice: decreased
[2]; NmU23 intraperitoneal 2 g/day vs PBS, lungs at 48 hours
  eosinophil infiltrates in the lung of N. brasiliensis infected mice: increased eosinophil infiltrates
